Results reported in patent US6120997A, “Nucleic acid binders having an hydroxyamine motif” (The Scripps Research Institute, priority 1998, dated 2000).

Tests used:
[1] = NMR dilution experiments of 1:1 salt complexes in DMSO-d6 (phosphodiester recognition); format: binding
Procedure: (§1) [a] NMR dilution experiments with the preformed 1:1 salt complexes were performed in DMSO-d6 at […]; [b] calculated maximum shift at full complexation in ppm.
(§2) In order to determine binding constants we prepared defined 1:1 salt complexes and measured their dissociation upon stepwise dilution in [D6 ]DMSO by following the shifts of NH and OH resonances. The chemical shift values of the totally uncomplexed state (o) and the fully complexed state (n) and the stability constant Ka were subsequently determined by curve fitting. […] In all cases, data could be fitted to a 1:1 binding isotherm. […] This order mirrors the order of binding affinities and is consistent with the interpretation that differential involvement of the hydroxyl group in hydrogen bonding provides for the energetic differences in complexation.

[2] = NMR dilution experiments with chloride counterion in DMSO-d6; format: binding
Procedure: as §1, §2

[3] = 13C-NMR titration of neamine with sodium sulfate in water; format: binding; conditions: pH 3.5
From the text: FIGS. 4A-4D illustrate the titration of neamine (12) with sodium sulfate at pH 3.5: (A) Titration curve for C1'. (B) Job plot; x=% complex formation. (C) Structure of neamine indicating the sites of maximum observed shift. (D) Maximum observed shift.
(§3) To investigate whether 1,3-hydroxyamine substructures may be involved in binding in aqueous solution, we turned our attention to neamine (12; FIG. 4), a pseudodisaccharide substructure commonly found in a wide range of aminoglycoside antibiotics. […] These weak forces may, however, be enhanced by increasing the charge of the interacting species. In fact, many recognition events involving nucleic acids--including those by aminoglycosides--are likely to have a strong contribution from their polyionic character. We therefore turned our attention to sulfate, as it is a tetrahedral oxyanion similar to phosphate and its double negative charge mimics the effect of a polyanion. Furthermore, it has a defined ionization state. Since the spectra of aminoglycosides are highly dependent on pH, and even minor pH changes can outweigh any small complexation induced shifts, we performed binding studies at low pH, where neamine is fully protonated. […] Analysis of ^13 C-NMR spectra provided a clearer picture (FIG. 4). […] Thus, the selectivity found in aqueous solution is in full agreement with the order of binding affinities determined in the model compounds.

[4] = NMR binding study with dimethylphosphate in water; conditions: concentration ranges accessible by NMR
From the text: as §3

AS-wt = experiment: SPR binding of aminoglycosides to decoding region A-site model AS-wt; set-up: species or system E. coli
Procedure: The RNA binding properties of 100-800 were analyzed using a surface plasmon resonance based assay that was recently developed in these laboratories. This assay allows the determination of both affinity and specificity of small molecule-RNA interactions. For the analysis, the compounds were injected over a matrix containing RNA that was immobilized through a biotin tag and the equilibrium binding values were recorded at various concentrations.
Non-linear curve fitting was then used to determine the values of the dissociation constants (KD). The specificity of binding, i.e. the ability to discriminate between different RNA sequences was evaluated by comparing the binding to the target sequence (AS-wt) and the negative control (AS-U1495A). The ratio of KD(AS-U1495A) to KD(AS-wt) was taken to be a representation of the specificity of the binding event.
For the quantitative measurement of aminoglycoside binding to these sequences, we utilized our recently developed SPR-based assay. Biotinylated derivatives of all sequences were prepared by in vitro transcription in the presence of guanosine 5'-monophosphorothioate followed by alkylation with a biotin iodoacetamide derivative. The RNA conjugates were then immobilized onto streptavidin coated SPR-sensorchips for analysis.
In the same manner as illustrated for paromomycin, a panel of aminoglycosides was screened and the results are compiled in the table of FIGS. 46 and 47. In addition to the naturally occuring aminoglycoside antibiotics, some of the compounds in FIG. 46 are synthetically derived, unnatural aminoglycosides. The number of independent determinations for each dissociation constant ranged from 1-3. […] All data were recorded under near physiological salt conditions (HBS-buffer: 150 mM NaCl, 10 mM HEPES, pH7.4, 3.4 mM EDTA) unless noted otherwise. Data points were taken at concentrations ranging from […]. Below this concentration range, surface transport limitations prevent the attainment of equilibrium.
Plasmon resonance and antimicrobial testing for Example 4. Synthesis of the biotinylated RNA and surface plasmon resonance detected binding experiments were performed as described vida supra. Solution conditions: 150 mM NaCl, 10 mM HEPES (pH 7.4), 3.4 mM EDTA. KD determination from the binding curves.
The fitting routine of the program kaleidagraph was used for all calculations. The starting values for a and b were set to 1 and 0 respectively. The number of KD values used in the fitting was adjusted depending on the observed range of equivalents bound but generally varied from 3 to 4.
General Procedures for SPR Binding Studies done in Example 5. Samples were prepared by serial dilutions from stock solutions in RNase free microfuge tubes (Ambion) and were centrifuged at 14000 rpm for degassing. Unless otherwise noted, all binding studies were carried out using HBS buffer (Pharmacia Biosensor AB) which was used as obtained. All procedures for binding studies were automated as methods using repetitive cycles of sample injection and regeneration. Typically, buffer was injected in the first two cycles to establish a stable baseline value. Samples were injected at a flowrate of […] using either the KINJECT command. All aminoglycoside samples were injected from autoclaved 7 mm plastic vials that were capped with pierceable plastic crimp caps. To minimize carry over, samples were injected in order of increasing concentration. The running buffer was identical to the injection buffer. Expected values for the equilibrium response of one equivalent of analyte were calculated from the relative molecular weight of the analyte and the immobilized RNA ligand in each flowcells and adjusted with a correction factor of 0.76 which arises from the different molar refractive indices of RNA and the analyte. […]

[5] = system: Escherichia coli (ATCC 25922); experiment: minimum inhibitory concentration, broth dilution technique; format: cell-based; conditions: E. coli, liquid culture
From the text: We reasoned that this modification would provide the cleanest test for probing the ionic contribution, since hydrogen bond donor abilities, electronegativity and steric demand are similar for both functional groups. In order to learn how well the model system correlates with in vivo activity, we checked the new compounds for antibacterial activity against three bacterial strains using the disc method (Kirby-Bauer technique). The minimum inhibitory concentrations (MICs) of the compounds were then determined using the broth dilution technique. For antibiotic testing protocols, see: (a) Disk testing protocols: Phillips, I.; Williams, D., in Laboratory Methods in Antimicrobial Chemotherapy, Garrod, L. (ed.) Churchill Livingstone Press: Edinburgh, 1978, pp. 3-30. (b) MIC determination: Waterworth, P. M., in Laboratory Methods in Antimicrobial Chemotherapy, Garrod, L. (ed.) Churchill Livingstone Press: Edinburgh, 1978, pp. 31-40; Barry, A. L. The Antimicrobic Susceptibility Test: Principles and Practice, Lea and Febiger: Philadelphia (1976). (c) Standards: Lorian, V., Antibiotics in Laboratory Medicine (2nd. ed.), Williams and Wilkins: Baltimore, 1986.
FIG. 39A gives the zone diameters measured for the three bacterial strains. The zone diameters measured for the strains with known antibiotics are well within the accepted limits. […] It is worth noting that some testing protocols recommend overnight growth of the cultures, rather than the minimum time required to obtain good growth of the control. MIC values were tested for several of the control antibiotics using overnight growth, and the MIC values observed were 2-4× greater than those observed for 4-6 hour growth.
Minimal Inhibitory Concentration (MIC) testing. E. coli ATCC 25922 was grown in Mueller-Hinton broth (cation-adjusted, BBL Microbiology Systems) to an optical density of approx. 0.5 (absorbance read at 600 nm), then diluted to an OD600 of 0.1. Samples of antibiotic were prepared in Mueller-Hinton broth, typically a series of 2-fold dilutions from […]. […] The absorbance of each sample was read (1=600 nm), and MIC was considered to be the lowest antibiotic concentration at which the absorbance was less than 1% of the no-antibiotic control.

[6] = system: bacterial protein synthesis; conditions: cited from earlier work
[7] = molecular target: Rev27 (synthetic Rev34-50 RNA-binding peptide with flanking Ala and N-terminal Cys) (Human immunodeficiency virus 1) (UniProt P04618); experiment: SPR; conditions: pH 7.4, 10 mM HEPES, 150 mM NaCl, 150 mM Na2SO4, 3.4 mM EDTA, 5 mM DTT, 10 C; 1:1; FIG. 7 legend gives 200 nM; Kd <10 nM at 5 C in 300 mM NaCl without sulfate
UniProt P04618, sequence (P04618 whole entry): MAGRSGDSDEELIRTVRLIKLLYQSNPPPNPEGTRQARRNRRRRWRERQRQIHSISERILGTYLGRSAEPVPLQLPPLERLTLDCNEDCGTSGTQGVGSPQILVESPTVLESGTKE

## CO[C@H]1O[C@H](CN)[C@@H](O)[C@H](OCc2ccccc2)[C@H]1OCc1ccccc1 [Compound 2]
[1]
  dimethylphosphate binding affinity (in words): higher affinity than bicyclic guanidine 6
  selectivity for dimethylphosphate over chloride: 10 fold

## CO[C@H]1O[C@H](CNCc2ccccc2)[C@@H](O)[C@H](OCc2ccccc2)[C@H]1OCc1ccccc1 [Compound 3]
[1]
  selectivity for dimethylphosphate over chloride: 7 fold
[2]
  chloride binding (in words): lower chloride binding compared to 2, 4 and 5

## NC[C@H]1O[C@H](O[C@H]2[C@H](O)[C@@H](O)[C@H](N)C[C@@H]2N)[C@H](N)[C@@H](O)[C@@H]1O [Neamine]
[3]
  binding stoichiometry with sulfate (method of Job): 1:1 complex
[4]
  binding to dimethylphosphate in water (in words): no detectable binding
AS-wt; 150 mM NaCl, 10 mM HEPES (pH 7.4), 3.4 mM EDTA, read-out: dissociation constant, AS-wt
  Kd: 7.8 µM
AS-wt; Example 5, HBS-buffer
  specificity for AS-wt over negative controls (in words): moderate specificity for AS-wt over AS-U1495A
AS-wt; KD(AS-U1495A)/KD(AS-wt)
  specificity for AS-wt relative to AS-U1495A: approximately 4 fold
[5]
  antibacterial activity / MIC compared with neomycin B (in words): inferior anti microbial activity
[6]
  effect on bacterial protein synthesis (in words): induces miscoding during translation

## wt-RRE-II
[7]
  Kd: 0.215 µM
